Data set [1] deals with Caco-2 cell monolayers. Particulars: human, Caco-2, 90 min, 50 μM, pH 7.4.
Another data set can be described thus: in vitro. The following applies: human, Caco-2, pH 7.4, Papp mean A to B.
Data set [2] concerns Caco-2 cell monolayers. Particulars: Caco-2 test system, historical values; cited from earlier work.
Data set [3] concerns HeLa (cervical adenocarcinoma). Put plainly: MTS cell viability assay, HeLa. Format: cell-based. Particulars: read-out: HeLa IC50. (Formazan colour is commonly taken as a measure of viable cells.)
The next data set has as its system A549 (lung carcinoma). Put plainly: MTS cell viability assay, A549. Format: cell-based.
Data set [4] is described as follows: Caco-2 monolayer permeability study. The following applies: human, Caco-2, pH 7.4, Papp mean A to B, Caco-2, 5 μM, 90 minutes, pH 7.4.
In data set [5] the test system is Caco-2 cell monolayers. In words: Caco-2 monolayer permeability study. Particulars: Caco-2, 5 μM, 90 minutes.
For data set [6] the following is noted: cited from earlier work.
A further data set has as its system COS-7 cells. In words: MTT cytotoxicity in COS-7 cells (run with SEAP). Format: cell-based, green monkey. The following applies: Chlorocebus sabaeus.
Data set [7] concerns TAT transactivation of the HIV-1 LTR promoter (TAT-TRS). Put plainly: cells. Particulars: Human immunodeficiency virus 1, COS-7, 48 h, read-out: SEAP EC50. The class given is cell-based.
In another data set the test system is MCP-1. In words: MCP-1 protein production in TNF-α-treated primary human keratinocytes. The class given is cell-based. The following applies: Keratinocyte, read-out: MCP-1 IC50.
Data set [8] has as its system H-69 small cell lung cancer cells. The following applies: cited from earlier work.
[9] abbreviates: Homo sapiens, A549, read-out: A549 IC50.

Structures can show the parent of a compound that is named as a salt. Where two headings read alike, the source gives them in different places.

A word on the Papp A→B: it is how fast a substance crosses the layer from the apical side. Lower therefore signals slow passage. Consider `OC[C@@H](O)[C@@H](O)[C@H](O)[C@H](O)CO` [mannitol, reference compound], for which the “Mass balance mean A to B” value in the data set on Caco-2 cell monolayers [1] is reported as 96%. The apparent permeability from apical to basolateral (Papp A→B) at 90 min, 50 μM in “in vitro” worked out at 5.14 nm/s.
Consider `CC(C)NCC(O)COc1cccc2ccccc12` (stereo not shown) [propranolol, reference compound], for which the “Mass balance mean A to B” value in the data set with Caco-2 cell monolayers [1] is on record as 71%. This compound displayed a Papp A→B at 90 min, 50 μM in “in vitro” of 142 nm/s. Further, in the data set with Caco-2 cell monolayers [2], the “Papp historical range at the testing facility (mean ± SD)” value is given as 1.5×10^−5±4.2×10^−5.
Usually IC50 stands for the concentration that inhibits the measured activity by half. On to `c1cc(OCCCN2CCCCC2)c(OCCCN2CCCCC2)cc1CCCCc1ccc(OCCCN2CCCCC2)c(OCCCN2CCCCC2)c1` [Compound E, 1,4-bis{3,4-bis[3-(piperidin-1-yl)propoxy]phenyl}-butane tetrakis-hydrochloride salt], for which the IC50 in data set [3] (MTS assay) was 5 to 10 µM; in the data set with A549 (lung carcinoma) (MTS assay, read-out: A549 IC50) it was 9 µM.
For `C[C@H]1O[C@@H](O[C@H]2[C@@H](O)C[C@H](O[C@H]3[C@@H](O)C[C@H](O[C@H]4CC[C@@]5(C)[C@H](CC[C@@H]6[C@@H]5C[C@@H](O)[C@]5(C)[C@@H](C7=CC(=O)OC7)CC[C@]65O)C4)O[C@@H]3C)O[C@@H]2C)C[C@H](O)[C@@H]1O` [digoxin, reference compound], the Papp A→B at 90 min, 5 μM in [4] stood at 22.8 nm/s. Further, in the data set with Caco-2 cell monolayers [5], the “Mass balance mean A to B” value is recorded as 73%, the “Mass balance mean B to A” value was determined as 79% and the “Polarization Ratio mean (B-A/A-B)” value is 5.4. In the data set with Caco-2 cell monolayers [5] (pH 7.4), the “Papp mean B to A” value is 124 nm/s.
Turning to `COc1ccc(C[C@@H](C)[C@@H](C)Cc2ccc(OC)c(OC)c2)cc1OC` [Compound M4N, (tetra-O-methyl)nordihydroguaiaretic acid], in data set [6], the water solubility entry was “poor”.
One may read the melting point as the temperature, or range, at which the solid turns liquid. Broadly, the EC50 is the concentration at which the effect is half-maximal. With `CCOc1ccc(CCCCc2ccc(OCC)c(OCC)c2)cc1OCC` [Compound C, 1,4-bis-(3,4-ethoxyphenyl) butane], the melting point was 113 to 115 °C. Moreover, in data set [3] (Homo sapiens, HeLa, MTS assay), the IC50 is greater than 100 µM. Moreover, in the data set on COS-7 cells (MTT assay, COS-7 test cells of the SEAP assay, read-out: COS-7 IC50), the IC50 was greater than 100 µM. Besides, the IC50 in the data set on A549 (lung carcinoma) (Homo sapiens, A549, MTS assay, read-out: A549 IC50) is greater than 100 µM. Also, the EC50 in data set [7] was greater than 100 µM. Also, in the data set with MCP-1 (TNF-α-treated PHK, MCP-1 protein production, ELISA), the IC50 was greater than 100 µM.
The compound `Oc1ccc(CCCCc2ccc(O)c(O)c2)cc1O` [Compound B, 1,4-bis-(3,4-hydroxyphenyl) butane] returned a melting point of 140 to 142 °C. Further, the “potency relative to NDGA as proliferative inhibitor” value in data set [8] is recorded as 10 times.
Turning to `COc1ccc(CCCCc2ccc(OC)c(OC)c2)cc1OC` [Compound A, 1,4-bis-(3,4-methoxyphenyl) butane], the IC50 in data set [3] (Homo sapiens, HeLa) was greater than 100 µM; in the data set with COS-7 cells (COS-7, read-out: COS-7 IC50), greater than 100 µM; with A549 (lung carcinoma) (setting [9]) it was greater than 100 µM; in the data set with MCP-1, greater than 100 µM. For the same compound, the EC50 in data set [7] is greater than 100 µM.
As to `CN1CCN(CCOc2ccc(CCCCc3ccc(OCCN4CCN(C)CC4)c(OCCN4CCN(C)CC4)c3)cc2OCCN2CCN(C)CC2)CC1` [Compound F, 1,4-bis{3,4-bis[2-(1-methyl-piperazin-4-yl)-ethoxy]phenyl}-butane], the IC50 in data set [3] (Homo sapiens, HeLa) is greater than 100 µM; in the data set on A549 (lung carcinoma) (setting [9]) it was greater than 100 µM.
On to `Cc1nc(COc2ccc(CCCCc3ccc(OCc4csc(C)n4)c(OCc4csc(C)n4)c3)cc2OCc2csc(C)n2)cs1` [Compound G, 1,4-bis{3,4-bis(2-methyl-thiazol-4-yl-methoxy)phenyl}-butane tetrakis-hydrochloride salt], for which the 50% inhibitory concentration (IC50) in [3] (Homo sapiens, HeLa) was greater than 100 µM; with A549 (lung carcinoma) (setting [9]), greater than 100 µM.
Compound `Cc1nc(COc2ccc(CCCCc3ccc(OCc4csc(C)n4)c(OCc4csc(C)n4)c3)cc2OCc2csc(C)n2)cs1` (as salt: hydrochloride) [Compound G, 1,4-bis{3,4-bis(2-methyl-thiazol-4-yl-methoxy)phenyl}-butane tetrakis-hydrochloride salt] had a melting point of 96 to 98 °C.

The values are drawn from patent US20170044121A1, “TETRA-O-SUBSTITUTED BUTANE-BRIDGE MODIFIED NDGA DERIVATIVES, THEIR SYNTHESIS AND PHARMAECUTICAL USE” (Erimos Pharmaceuticals LLC, priority 2006, published 2017).
